Assay results: patent publication US20030089472A1, “Laccase activity enhancers for pulp bleaching” (priority 2001, published 2003)

Tested on: laccase (NS51003, Novozymes A/S, Denmark)
Experiment: Delignification of a softwood Kraft pulp using a laccase-mediator system (change in Kappa number, TAPPI T236 cm-85)
Format: biochemical
Conditions: for Kappa # (Mediator): pH 5.5
Protocol: Delignification of a Softwood Kraft Pulp Using a Laccase-Mediator System in the Presence of a Mediator
In the following example, a softwood Kraft pulp was delignified using a laccase-mediator system. The Kraft process is well known to those skilled in the art and is described, for example, by Swen A. Rydholm in “Pulping Process”, Interscience Publishers, New York, N.Y. (1965), p. 576.
A softwood Kraft pulp, Kappa number 31.0, was treated with a laccase (NS51003, Novozymes A/S, Denmark) under the following conditions:
The dried pulp was added to 80 ml of 50 mM phosphate, pH 5.5, and disintegrated in a blender. The pulp was then transferred to a 500 ml conical flask, and the blender was washed with 20 ml of the same buffer. The washed buffer and the pulp were combined. The mediator was added at 1-4% (w/w, based on the dry pulp) (Dosage) followed by the addition of the laccase. The pH of the pulp mixture was adjusted to 5.5 if needed. The flask was covered with an aluminum foil with holes punched through and incubated at 50° C. for 16 hrs on a rotary shaker at 200 rpm.
After the enzymatic treatment, the pulp mixture was filtered through a Buchner funnel and the pulp was washed with water. The pulp from the control experiment was treated at the same pH and temperature as described above in the absence of mediators.
The washed pulp was then treated with an alkaline solution under the following conditions:
The filtered pulp was repulped in the alkaline solution and incubated at 70° C. for 3 hrs. The pH of the pulp mixture should be between 11.7-12.00 during the entire treatment. After the treatment, the pulp mixture was filtered through a Buchner funnel, and the pulp was washed with water extensively, and then dried in a hood overnight.
The delignification of the pulp was measured as the change in Kappa number according to TAPPI method T236 cm−85. Briefly, a known mass of paper pulp (containing lignin) was reacted with an excess of potassium permanganate in acid solution for a specified period of time to oxidize the lignin. After the reaction, the residual permanganate was determined by titration. The Kappa number was defined as the volume (ml) of 0.1N potassium permanganate consumed by 1 g of moisture-free pulp in 0.5N sulfuric acid after a ten minute reaction time at 25° C. under conditions such that one-half of the permanganate remained unreacted. A linear relationship with the lignin content of the pulp and the measurement of the Kappa number had already been done on samples as low as 300 mg of pulp.

Structure (SMILES)	Δ Kappa #	Kappa # (Mediator)
C(=NCc1ccccc1)c1ccccc1 [N-Benzylidene-benzylamine]	−0.3	28.3
Oc1ccccc1 [Phenol]	−1.1	25.0
CN(C)C(=S)[S-].O.[Na+] [Sodium dimethyldithio carbonate hydrate]	−0.7	28.6
Cc1ccc2nc(-c3ccc(N=NNc4ccc(-c5nc6ccc(C)c(S(=O)(=O)[O-])c6s5)cc4)cc3)sc2c1S(=O)(=O)[O-].[Na+].[Na+] [Thiazol Yellow G]	−3.0	21.9
